Measured values as given in patent publication US10172863B2, “Purine derivatives useful as HSP90 inhibitors” (Sloan-Kettering Institute for Cancer Research, priority 2009, dated 2019).

System: SKBr3 cell Hsp90
Experiment: EC50 for Hsp90 binding in SKBr3 cell lysate
Details: read-out: EC50, binding to SKBr3 cell Hsp90

| SMILES | EC50 |
| --- | --- |
| CC(C)NCCCn1c(Sc2cc3c(cc2C2C=CCN2)OCO3)nc2c(N)ncnc21 (stereo not drawn) [Compound 4H-7, 8-(6-(2,5-dihydro-1H-pyrrol-2-yl)benzo[d][1,3]dioxol-5-ylthio)-9-(3-(isopropylamino)propyl)-9H-purin-6-amine] | 26.7 µM |
| COc1ccc(-c2cc3c(cc2Sc2nc4c(N)ncnc4n2CCCNC(C)C)OCO3)cc1 [Compound 4A-6, 9-(3-(isopropylamino)propyl)-8-(6-(4-methoxyphenyl)benzo[d][1,3]dioxol-5-ylthio)-9H-purin-6-amine] | 1.03 µM |
| NCCCCCCNCCCn1c(Sc2cc3c(cc2-c2cc(C(F)(F)F)cc(C(F)(F)F)c2)OCO3)nc2c(N)ncnc21 [Compound 4A-4, N1-(3-(6-amino-8-(6-(3,5-bis(trifluoromethyl)phenyl)benzo[d][1,3]dioxol-5-ylthio)-9H-purin-9-yl)propyl)hexane-1,6-diamine] | 15 µM |
| CC(C)NCCCn1c(Sc2cc3c(cc2-c2ccc(C=O)cc2)OCO3)nc2c(N)ncnc21 [Compound 4A-8, 4-(6-(6-amino-9-(3-(isopropylamino)propyl)-9H-purin-8-ylthio)benzo[d][1,3]dioxol-5-yl)benzaldehyde] | > 3 µM |
| CC(C)NCCCn1c(Sc2cc3c(cc2-c2ccnn2C)OCO3)nc2c(N)ncnc21 [Compound 4G-4, 9-(3-(isopropylamino)propyl)-8-(6-(1-methyl-1H-pyrazol-5-yl)benzo[d][1,3]dioxol-5-ylthio)-9H-purin-6-amine] | > 0.3 µM |
| CC(C)NCCCn1c(Sc2cc3c(cc2-c2ccncc2)OCO3)nc2c(N)ncnc21 [Compound 4F-1, 9-(3-(isopropylamino)propyl)-8-(6-(pyridin-4-yl)benzo[d][1,3]dioxol-5-ylthio)-9H-purin-6-amine] | 9.62 µM |
| CC(C)NCCCn1c(Sc2cc3c(cc2-c2ccc(N(C)C)cc2)OCO3)nc2c(N)ncnc21 [Compound 4A-5, 8-(6-(4-(dimethylamino)phenyl)benzo[d][1,3]dioxol-5-ylthio)-9-(3-(isopropylamino)propyl)-9H-purin-6-amine] | 2.52 µM |
| CC(C)NCCCn1c(Sc2cc3c(cc2-c2ccc[nH]2)OCO3)nc2c(N)ncnc21 [Compound 4H-1, 8-(6-(1H-pyrrol-2-yl)benzo[d][1,3]dioxol-5-ylthio)-9-(3-(isopropylamino)propyl)-9H-purin-6-amine] | 0.74 µM |
| CC(C)NCCCn1c(Sc2cc3c(cc2C2C=COC2)OCO3)nc2c(N)ncnc21 (stereo not drawn) [Compound 4C-41, 8-(6-(2,3-dihydrofuran-3-yl)benzo[d][1,3]dioxol-5-ylthio)-9-(3-(isopropylamino)propyl)-9H-purin-6-amine] | 2.08 µM |
| CC(C)NCCCn1c(Sc2cc3c(cc2-c2cn[nH]c2)OCO3)nc2c(N)ncnc21 [Compound 4G-1, 8-(6-(1H-pyrazol-4-yl)benzo[d][1,3]dioxol-5-ylthio)-9-(3-(isopropylamino)propyl)-9H-purin-6-amine] | 1.02 µM |
| CC(C)NCCCn1c(Sc2cc3c(cc2-c2cnoc2)OCO3)nc2c(N)ncnc21 [Compound 4C-10, 9-(3-(isopropylamino)propyl)-8-(6-(isoxazol-4-yl)benzo[d][1,3]dioxol-5-ylthio)-9H-purin-6-amine] | > 0.3 µM |
| CC(C)NCCCn1c(Sc2cc3c(cc2-c2ccc(C(C)(C)C)cc2)OCO3)nc2c(N)ncnc21 [Compound 4A-2, 8-(6-(4-tert-butylphenyl)benzo[d][1,3]dioxol-5-ylthio)-9-(3-(isopropylamino)propyl)-9H-purin-6-amine] | 6.24 µM |
| CC(C)NCCCn1c(Sc2cc3c(cc2C2CC=CO2)OCO3)nc2c(N)ncnc21 (stereo not drawn) [Compound 4C-40, 8-(6-(2,3-dihydrofuran-2-yl)benzo[d][1,3]dioxol-5-ylthio)-9-(3-(isopropylamino)propyl)-9H-purin-6-amine] | 0.509 µM |
| CC(C)NCCCn1c(Sc2cc3c(cc2-c2ccccc2)OCO3)nc2c(N)ncnc21 [Compound 4A-1, 9-(3-(isopropylamino)propyl)-8-(6-phenylbenzo[d][1,3]dioxol-5-ylthio)-9H-purin-6-amine] | 0.645 µM |
| CC(C)NCCCn1c(Sc2cc3c(cc2-c2ccc(Br)cc2)OCO3)nc2c(N)ncnc21 [Compound 4A-7, 8-(6-(4-bromophenyl)benzo[d][1,3]dioxol-5-ylthio)-9-(3-(isopropylamino)propyl)-9H-purin-6-amine] | 1.39 µM |

These reach a lower EC50. Values come first.

| EC50 | SMILES |
| --- | --- |
| 0.161 µM | CC(C)NCCCn1c(Sc2cc3c(cc2-c2cc[nH]c2)OCO3)nc2c(N)ncnc21 [Compound 4H-3, 8-(6-(1H-pyrrol-3-yl)benzo[d][1,3]dioxol-5-ylthio)-9-(3-(isopropylamino)propyl)-9H-purin-6-amine] |
| 0.141 µM | CC(C)NCCCn1c(Sc2cc3c(cc2-c2ccc(C=O)o2)OCO3)nc2c(N)ncnc21 [Compound 4C-6, 5-(6-(6-amino-9-(3-(isopropylamino)propyl)-9H-purin-8-ylthio)benzo[d][1,3]dioxol-5-yl)furan-2-carbaldehyde] |
| 0.097 µM | CC(C)NCCCn1c(Sc2cc3ccccc3cc2I)nc2c(N)ncnc21 [Compound 6B-25, 8-(3-iodonaphthalen-2-ylthio)-9-(3-(isopropylamino)propyl)-9H-purin-6-amine] |
| 0.086 µM | CC(C)NCCCn1c(Sc2cc3c(cc2-c2ccoc2)OCO3)nc2c(N)ncnc21 [Compound 4C-2, 8-(6-(furan-3-yl)benzo[d][1,3]dioxol-5-ylthio)-9-(3-(isopropylamino)propyl)-9H-purin-6-amine] |
| 0.084 µM | COc1ccc(-c2ccco2)c(Sc2nc3c(N)ncnc3n2CCNCC(C)(C)C)c1 [Compound 7C-13, 8-(2-(furan-2-yl)-5-methoxyphenylthio)-9-(2-(neopentylamino)ethyl)-9H-purin-6-amine] |
| 0.08 µM | CC(C)NCCCn1c(Sc2cc3c(cc2-c2cccs2)OCO3)nc2c(N)ncnc21 [Compound 4D-1, 9-(3-(isopropylamino)propyl)-8-(6-(thiophen-2-yl)benzo[d][1,3]dioxol-5-ylthio)-9H-purin-6-amine] |
| 0.0628 µM | Nc1ncnc2c1nc(Sc1cc3c(cc1I)OCCO3)n2CCCn1ccnc1 [Compound 5A-4, 9-(3-(1H-imidazol-1-yl)propyl)-8-(7-iodo-2,3-dihydrobenzo[b][1,4]dioxin-6-ylthio)-9H-purin-6-amine] |
| 0.047 µM | CC(C)NCCCn1c(Sc2cc3c(cc2-c2nccs2)OCO3)nc2c(N)ncnc21 [Compound 4D-16, 9-(3-(isopropylamino)propyl)-8-(6-(thiazol-2-yl)benzo[d][1,3]dioxol-5-ylthio)-9H-purin-6-amine] |
| 0.037 µM | Cc1ccc(-c2cc3c(cc2Sc2nc4c(N)ncnc4n2CCCNC(C)C)OCO3)o1 [Compound 4C-8, 9-(3-(isopropylamino)propyl)-8-(6-(5-methylfuran-2-yl)benzo[d][1,3]dioxol-5-ylthio)-9H-purin-6-amine] |
| 0.0348 µM | CC(C)(C)CNCCN1C(Sc2cc3c(cc2I)OCCO3)=NC2C(N)=NC=NC21 (stereo not drawn) [Compound 5A-3, 8-(7-Iodo-2,3-dihydrobenzo[b][1,4]dioxin-6-ylthio)-9-(2-(neopentylamino)ethyl)-5,9-dihydro-4H-purin-6-amine] |
| 0.0346 µM | CC(C)CNCCN1C(Sc2cc3c(cc2I)OCCO3)=NC2C(N)=NC=NC21 (stereo not drawn) [Compound 5A-2, 8-(7-Iodo-2,3-dihydrobenzo[b][1,4]dioxin-6-ylthio)-9-(2-(isobutylamino)ethyl)-5,9-dihydro-4H-purin-6-amine] |
| 0.0345 µM | CC(C)NCCCn1c(Sc2cc3c(cc2I)OCCO3)nc2c(N)ncnc21 [Compound 5A-1, 8-(7-Iodo-2,3-dihydrobenzo[b][1,4]dioxin-6-ylthio)-9-(3-(isopropylamino)propyl)-9H-purin-6-amine] |
| 0.0246 µM | CC(C)(C)CNCCn1c(Sc2cc3c(cc2-c2cc[nH]c2)OCO3)nc2c(N)ncnc21 [Compound 4H-4, 8-(6-(1H-pyrrol-3-yl)benzo[d][1,3]dioxol-5-ylthio)-9-(2-(neopentylamino)ethyl)-9H-purin-6-amine] |
| 0.0185 µM | CC(C)(C)CNCCn1c(Sc2cc3c(cc2-c2cccs2)OCO3)nc2c(N)ncnc21 [Compound 4D-3, 9-(2-(neopentylamino)ethyl)-8-(6-(thiophen-2-yl)benzo[d][1,3]dioxol-5-ylthio)-9H-purin-6-amine] |
| 0.0112 µM | CC(C)NCCCn1c(Sc2cc3c(cc2-c2cc[nH]n2)OCCO3)nc2c(N)ncnc21 [Compound 5D-2, 8-((7-(1H-pyrazol-3-yl)-2,3-dihydrobenzo[b][1,4]dioxin-6-yl)thio)-9-(3-(isopropylamino)propyl)-9H-purin-6-amine] |
| 0.0102 µM | Cc1ccc(-c2cc3c(cc2Sc2nc4c(N)ncnc4n2CCNCC(C)(C)C)OCO3)o1 [Compound 4C-16, 8-(6-(5-methylfuran-2-yl)benzo[d][1,3]dioxol-5-ylthio)-9-(2-(neopentylamino)ethyl)-9H-purin-6-amine] |
| 0.0101 µM | CC(C)(C)CNCCn1c(Sc2cc3c(cc2-c2ccoc2)OCO3)nc2c(N)ncnc21 [Compound 4C-14, 8-(6-(furan-3-yl)benzo[d][1,3]dioxol-5-ylthio)-9-(2-(neopentylamino)ethyl)-9H-purin-6-amine] |
| 0.0069 µM | CC(C)NCCCn1c(Sc2cc3c(cc2-c2ccco2)OCCO3)nc2c(N)ncnc21 [Compound 5B-1, 8-((7-(furan-2-yl)-2,3-dihydrobenzo[b][1,4]dioxin-6-yl)thio)-9-(3-(isopropylamino)propyl)-9H-purin-6-amine] |
| 0.0055 µM | CC(C)NCCCn1c(Sc2cc3c(cc2-c2cc[nH]n2)OCO3)nc2c(N)ncnc21 [Compound 4G-6, 8-(6-(1H-pyrazol-3-yl)benzo[d][1,3]dioxol-5-ylthio)-9-(3-(isopropylamino)propyl)-9H-purin-6-amine] |
| 0.0055 µM | CC(C)(C)CNCCn1c(Sc2cc3c(cc2-c2cc[nH]n2)OCO3)nc2c(N)ncnc21 [Compound 4G-9, 8-(6-(1H-pyrazol-3-yl)benzo[d][1,3]dioxol-5-ylthio)-9-(2-(neopentylamino)ethyl)-9H-purin-6-amine] |
| 0.0035 µM | CC(C)NCCCn1c(Sc2cc3c(cc2-c2ncco2)OCCO3)nc2c(N)ncnc21 [Compound 5B-34, 9-(3-(isopropylamino)propyl)-8-((7-(oxazol-2-yl)-2,3-dihydrobenzo[b][1,4]dioxin-6-yl)thio)-9H-purin-6-amine] |
